Test results reported in patent publication US12077503B2, “Substituted cyclic amides and their use as herbicides” (FMC CORPORATION, priority 2015, dated 2024).

Legend:
Assay type in all cases: in vivo
[1] = test system: ivy-leaved morning glory (Ipomoea hederacea); assay: Test G Pre-Emergence Protocol; details: Ipomoea, pre-emergence, 312 h, evaluated after 13 days; for pest or weed control at 15.625 g/ha: 15.625 g ai/ha, read-out: Morning-glory, Ivy-leaved damage rating (100=total damage to plant; 0=no damage to plant); for pest or weed control at 62.5 g/ha: 62.5 g ai/ha, 100=total damage to plant, 0=no damage to plant, read-out: plant damage rating, Morningglory, Ivy-leaved; for pest or weed control at 250 g/ha: 250 g ai/ha, read-out: Morningglory, Ivy-leaved damage rating (100=total damage to plant; 0=no damage to plant)
Procedure, shortened: (§1)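 Spraying took place one day after sowing, at 15.625, 62.5 or 250 g/ha, using an acetone/water (50:50) spray solution containing 0.5% Tween 20. Plants were kept under glasshouse conditions (24/16 °C, 14 h light, 65% humidity, watered twice daily), and injury was rated 0–100 at day 13.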

[2] = test system: velvetleaf (Abutilon theophrasti); assay: Test G Pre-Emergence Protocol; details: Abutilon theophrasti, pre-emergence, 312 h, evaluated after 13 days; for pest or weed control at 15.625 g/ha: 15.625 g ai/ha; for pest or weed control at 15.625 g/ha / pest or weed control at 250 g/ha: read-out: Velvetleaf damage rating (100=total damage to plant; 0=no damage to plant); for pest or weed control at 62.5 g/ha: 62.5 g ai/ha, 100=total damage to plant, 0=no damage to plant, read-out: plant damage rating, Velvetleaf; for pest or weed control at 250 g/ha: 250 g ai/ha
Procedure, shortened: as §1

corn (Zea mays) [3] = assay: Test G Pre-Emergence Protocol; details: Zea mays, pre-emergence, 312 h, evaluated after 13 days; for plant injury at 15.625 g/ha: 15.625 g ai/ha; for plant injury at 15.625 g/ha / plant injury at 250 g/ha: read-out: Corn damage rating (100=total damage to plant; 0=no damage to plant); for plant injury at 62.5 g/ha: 62.5 g ai/ha, 100=total damage to plant, 0=no damage to plant, read-out: plant damage rating, Corn; for plant injury at 250 g/ha: 250 g ai/ha
Procedure, shortened: as §1

[4] = test system: giant foxtail (Setaria faberi); assay: Test G Pre-Emergence Protocol; details: Setaria faberi, pre-emergence, 312 h, evaluated after 13 days; for pest or weed control at 15.625 g/ha: 15.625 g ai/ha; for pest or weed control at 15.625 g/ha / pest or weed control at 250 g/ha: read-out: Foxtail, Giant damage rating (100=total damage to plant; 0=no damage to plant); for pest or weed control at 62.5 g/ha: 62.5 g ai/ha, 100=total damage to plant, 0=no damage to plant, read-out: plant damage rating, Foxtail, Giant; for pest or weed control at 250 g/ha: 250 g ai/ha
Procedure, shortened: as §1

[5] = test system: barnyardgrass (Echinochloa crus-galli); assay: Test G Pre-Emergence Protocol; details: Echinochloa crus-galli, pre-emergence, 312 h, evaluated after 13 days; for pest or weed control at 15.625 g/ha: 15.625 g ai/ha, read-out: Barnyard grass damage rating (100=total damage to plant; 0=no damage to plant); for pest or weed control at 62.5 g/ha: 62.5 g ai/ha, 100=total damage to plant, 0=no damage to plant, read-out: plant damage rating, Barnyardgrass; for pest or weed control at 250 g/ha: 250 g ai/ha, read-out: Barnyardgrass damage rating (100=total damage to plant; 0=no damage to plant)
Procedure, shortened: as §1

[6] = test system: redroot pigweed (Amaranthus retroflexus); assay: Test G Pre-Emergence Protocol; details: Amaranthus retroflexus, pre-emergence, 312 h, evaluated after 13 days; for pest or weed control at 15.625 g/ha: 15.625 g ai/ha; for pest or weed control at 15.625 g/ha / pest or weed control at 250 g/ha: read-out: Pigweed, Redroot damage rating (100=total damage to plant; 0=no damage to plant); for pest or weed control at 62.5 g/ha: 62.5 g ai/ha, 100=total damage to plant, 0=no damage to plant, read-out: plant damage rating, Pigweed, Redroot; for pest or weed control at 250 g/ha: 250 g ai/ha
Procedure, shortened: as §1

[7] = test system: ivy-leaved morning glory (Ipomoea hederacea); assay: Test G Post-Emergence Protocol; details: Ipomoea, post-emergence, 312 h; for pest or weed control at 15.625 g/ha: 15.625 g ai/ha, evaluated after 13 days (100=total damage to plant; 0=no damage to plant), read-out: Morningglory, Ivy-leaved damage rating; for pest or weed control at 62.5 g/ha: 62.5 g ai/ha, read-out: Morningglory, Ivy-leaved damage rating (100=total damage to plant; 0=no damage to plant); for pest or weed control at 62.5 g/ha / pest or weed control at 250 g/ha: evaluated after 13 days; for pest or weed control at 250 g/ha: 250 g ai/ha, read-out: damage to plant, Morningglory, Ivy-leaved (100=total damage to plant; 0=no damage to plant)
Procedure, shortened: (§2)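 Post-emergence herbicidal damage, scored visually 0–100 at 13 days. Application at 15.625, 62.5 or 250 g/ha onto 8-day-old plants grown under glasshouse control.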

[8] = test system: velvetleaf (Abutilon theophrasti); assay: Test G Post-Emergence Protocol; details: Abutilon theophrasti, post-emergence, 312 h; for pest or weed control at 15.625 g/ha: 15.625 g ai/ha, evaluated after 13 days (100=total damage to plant; 0=no damage to plant), read-out: Velvetleaf damage rating; for pest or weed control at 62.5 g/ha: 62.5 g ai/ha, read-out: Velvetleaf damage rating (100=total damage to plant; 0=no damage to plant); for pest or weed control at 62.5 g/ha / pest or weed control at 250 g/ha: evaluated after 13 days; for pest or weed control at 250 g/ha: 250 g ai/ha, read-out: damage to plant, Velvetleaf (100=total damage to plant; 0=no damage to plant)
Procedure, shortened: as §2

corn (Zea mays) [9] = assay: Test G Post-Emergence Protocol; details: Zea mays, post-emergence, 312 h; for plant injury at 15.625 g/ha: 15.625 g ai/ha, evaluated after 13 days (100=total damage to plant; 0=no damage to plant), read-out: Corn damage rating; for plant injury at 62.5 g/ha: 62.5 g ai/ha, read-out: Corn damage rating (100=total damage to plant; 0=no damage to plant); for plant injury at 62.5 g/ha / plant injury at 250 g/ha: evaluated after 13 days; for plant injury at 250 g/ha: 250 g ai/ha, read-out: damage to plant, Corn (100=total damage to plant; 0=no damage to plant)
Procedure, shortened: as §2

[10] = test system: giant foxtail (Setaria faberi); assay: Test G Post-Emergence Protocol; details: Setaria faberi, post-emergence, 312 h; for pest or weed control at 15.625 g/ha: 15.625 g ai/ha, evaluated after 13 days (100=total damage to plant; 0=no damage to plant), read-out: Foxtail, Giant damage rating; for pest or weed control at 62.5 g/ha: 62.5 g ai/ha, read-out: Foxtail, Giant damage rating (100=total damage to plant; 0=no damage to plant); for pest or weed control at 62.5 g/ha / pest or weed control at 250 g/ha: evaluated after 13 days; for pest or weed control at 250 g/ha: 250 g ai/ha, read-out: damage to plant, Foxtail, Giant (100=total damage to plant; 0=no damage to plant)
Procedure, shortened: as §2

[11] = test system: barnyardgrass (Echinochloa crus-galli); assay: Test G Post-Emergence Protocol; details: Echinochloa crus-galli, post-emergence, 312 h; for pest or weed control at 15.625 g/ha: 15.625 g ai/ha, evaluated after 13 days (100=total damage to plant; 0=no damage to plant), read-out: Barnyardgrass damage rating; for pest or weed control at 62.5 g/ha: 62.5 g ai/ha, read-out: Barnyardgrass damage rating (100=total damage to plant; 0=no damage to plant); for pest or weed control at 62.5 g/ha / pest or weed control at 250 g/ha: evaluated after 13 days; for pest or weed control at 250 g/ha: 250 g ai/ha, read-out: damage to plant, Barnyardgrass (100=total damage to plant; 0=no damage to plant)
Procedure, shortened: as §2

[12] = test system: redroot pigweed (Amaranthus retroflexus); assay: Test G Post-Emergence Protocol; details: Amaranthus retroflexus, post-emergence, 312 h; for pest or weed control at 15.625 g/ha: 15.625 g ai/ha, evaluated after 13 days (100=total damage to plant; 0=no damage to plant), read-out: Pigweed, Redroot damage rating; for pest or weed control at 62.5 g/ha: 62.5 g ai/ha, read-out: Pigweed, Redroot damage rating (100=total damage to plant; 0=no damage to plant); for pest or weed control at 62.5 g/ha / pest or weed control at 250 g/ha: evaluated after 13 days; for pest or weed control at 250 g/ha: 250 g ai/ha, read-out: damage to plant, Pigweed, Redroot (100=total damage to plant; 0=no damage to plant)
Procedure, shortened: as §2

Structure (SMILES) | pest or weed control at 15.625 g/ha [1] [%] | pest or weed control at 62.5 g/ha [1] [%] | pest or weed control at 250 g/ha [1] [%] | pest or weed control at 15.625 g/ha [2] [%] | pest or weed control at 62.5 g/ha [2] [%] | pest or weed control at 250 g/ha [2] [%] | plant injury at 15.625 g/ha (corn (Zea mays) [3]) [%] | plant injury at 62.5 g/ha (corn (Zea mays) [3]) [%] | plant injury at 250 g/ha (corn (Zea mays) [3]) [%] | pest or weed control at 15.625 g/ha [4] [%] | pest or weed control at 62.5 g/ha [4] [%] | pest or weed control at 250 g/ha [4] [%] | pest or weed control at 15.625 g/ha [5] [%] | pest or weed control at 62.5 g/ha [5] [%] | pest or weed control at 250 g/ha [5] [%] | pest or weed control at 15.625 g/ha [6] [%] | pest or weed control at 62.5 g/ha [6] [%] | pest or weed control at 250 g/ha [6] [%] | pest or weed control at 15.625 g/ha [7] [%] | pest or weed control at 62.5 g/ha [7] [%] | also measured
CN1C[C@H](c2ccc(C(F)(F)F)cc2)[C@@H](C(=O)Nc2ccc(F)c(C(F)(F)F)c2)C1=O (racemic) [Compound 1443] | 0 | 0 | 0 | 0 | 0 | 0 | 0 | 0 | 0 | 0 | 0 | 0 | 0 | 0 | 0 | 0 | 0 | 0 | 0 | 0 | pest or weed control at 250 g/ha [7]: 0%; pest or weed control at 15.625 g/ha [8]: 0%; pest or weed control at 62.5 g/ha [8]: 0%; pest or weed control at 250 g/ha [8]: 0%; plant injury at 15.625 g/ha (corn (Zea mays) [9]): 0%; plant injury at 62.5 g/ha (corn (Zea mays) [9]): 0%; plant injury at 250 g/ha (corn (Zea mays) [9]): 0%; pest or weed control at 15.625 g/ha [10]: 0%; pest or weed control at 62.5 g/ha [10]: 0%; pest or weed control at 250 g/ha [10]: 0%; pest or weed control at 15.625 g/ha [11]: 0%; pest or weed control at 62.5 g/ha [11]: 0%; pest or weed control at 250 g/ha [11]: 0%; pest or weed control at 15.625 g/ha [12]: 0%; pest or weed control at 62.5 g/ha [12]: 0%; pest or weed control at 250 g/ha [12]: 0%
Cc1c(C#N)cccc1NC(=O)[C@H]1C(=O)N(C)C[C@@H]1c1ccc(C(F)(F)F)cc1 (racemic) [Compound 1444] | 10 | 0 | 40 | 0 | 20 | 20 | 0 | 0 | 50 | 50 | 80 | 80 | 10 | 30 | 60 | 0 | 40 | 50 | 0 | 10 | pest or weed control at 250 g/ha [7]: 10%; pest or weed control at 15.625 g/ha [8]: 0%; pest or weed control at 62.5 g/ha [8]: 0%; pest or weed control at 250 g/ha [8]: 0%; plant injury at 15.625 g/ha (corn (Zea mays) [9]): 10%; plant injury at 62.5 g/ha (corn (Zea mays) [9]): 10%; plant injury at 250 g/ha (corn (Zea mays) [9]): 10%; pest or weed control at 15.625 g/ha [10]: 0%; pest or weed control at 62.5 g/ha [10]: 60%; pest or weed control at 250 g/ha [10]: 60%; pest or weed control at 15.625 g/ha [11]: 0%; pest or weed control at 62.5 g/ha [11]: 10%; pest or weed control at 250 g/ha [11]: 20%; pest or weed control at 15.625 g/ha [12]: 10%; pest or weed control at 62.5 g/ha [12]: 10%; pest or weed control at 250 g/ha [12]: 20%
